According to patent publication US9023789B2, “Amylin analogs and pharmaceutical compositions thereof” (Novo Nordisk A/S, priority 2012, dated 2015):
Read-outs that look alike come from different tables or passages of the source. Numbered stars: 1 amine (or outer) side, 2 acyl side, 3 side chain; on linkers, the order of the positions; unused ones are H or OH. Bridge positions count the residues as written; N and C are the ends. Side chains are listed from the residue outwards. Peptide text beside a SMILES is read from it. * marks the point of attachment. C20 diacid = O=C(O)CCCCCCCCCCCCCCCCCCC(=O)*; γGlu = O=C(O)[C@H](CCC(=O)[*:2])N[*:1]

How the values were obtained:
[1] = biological target: T1, human amylin receptor (membranes from Amylin 3(a)/CRE-luc cells) (Homo sapiens, UniProt O60896+P30988); test: ASSAY (V) binding to the human amylin receptor (SPA, 125I-rat amylin);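 note: competition binding of cell membranes (35 ng/µL) mixed with SPA beads in 384-well plates at 40 µL total volume, read by scintillation counting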
T1 construct: expressed in transfected cells
T1 sequence (P30988 25-474): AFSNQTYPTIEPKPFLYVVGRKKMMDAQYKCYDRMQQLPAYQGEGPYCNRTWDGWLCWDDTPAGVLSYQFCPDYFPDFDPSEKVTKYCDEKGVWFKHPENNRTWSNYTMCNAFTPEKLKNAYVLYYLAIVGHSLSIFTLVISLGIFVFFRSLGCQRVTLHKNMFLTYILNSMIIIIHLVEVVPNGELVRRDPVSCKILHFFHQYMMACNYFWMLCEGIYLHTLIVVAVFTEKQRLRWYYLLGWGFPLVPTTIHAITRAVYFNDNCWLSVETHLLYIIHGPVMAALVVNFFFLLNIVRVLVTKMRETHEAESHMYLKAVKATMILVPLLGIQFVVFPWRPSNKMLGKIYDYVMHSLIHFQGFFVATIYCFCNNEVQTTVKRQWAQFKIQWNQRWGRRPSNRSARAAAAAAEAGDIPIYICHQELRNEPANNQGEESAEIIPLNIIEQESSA
T1 sequence (O60896 24-148 partner): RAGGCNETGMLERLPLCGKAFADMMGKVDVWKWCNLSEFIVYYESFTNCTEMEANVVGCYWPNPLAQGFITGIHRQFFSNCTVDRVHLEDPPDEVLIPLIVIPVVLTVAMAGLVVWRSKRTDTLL

[2] = biological target: T2, rat calcitonin receptor (Rattus norvegicus, UniProt P32214); test: ASSAY (VIII) binding to the rat calcitonin receptor; details: Table 7, read-out: rCTR bind IC50
T2 construct: expressed in transfected cells; host or cells: BHK tk'ts 13 (transient, FuGENE 6), membranes
T2 sequence (P32214 25-479 isoform P32214-2 limits assumed): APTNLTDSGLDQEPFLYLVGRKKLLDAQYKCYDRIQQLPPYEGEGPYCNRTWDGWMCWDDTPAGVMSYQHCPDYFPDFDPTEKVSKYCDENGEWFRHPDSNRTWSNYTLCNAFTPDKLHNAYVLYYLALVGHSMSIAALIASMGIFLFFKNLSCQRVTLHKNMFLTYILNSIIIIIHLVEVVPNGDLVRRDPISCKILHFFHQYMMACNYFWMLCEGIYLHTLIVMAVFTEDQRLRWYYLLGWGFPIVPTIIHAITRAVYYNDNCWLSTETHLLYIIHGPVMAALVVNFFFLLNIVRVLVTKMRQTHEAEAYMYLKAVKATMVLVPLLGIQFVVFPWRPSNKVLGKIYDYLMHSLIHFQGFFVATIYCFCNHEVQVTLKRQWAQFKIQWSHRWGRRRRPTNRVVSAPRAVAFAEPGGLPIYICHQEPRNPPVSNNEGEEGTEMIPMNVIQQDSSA
Summary of the method: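 Rat calcitonin receptor is expressed transiently in BHK tk′ts 13 cells cultured in DMEM with 10% FBS. Roughly two days (approximately 48 hours) post-transfection, cells are harvested for membrane preparation.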

[3] = ASSAY (IV) determination of solubility; type: physicochemical
Summary of the method: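 Dissolve polypeptide in water ([…] stock); combine 1:1 with each 100 mM buffer (glycylglycine pH 3.0/4.0/5.0; bistrispropane pH 6.0/6.5/7.0/7.5/8.0); hold 18 hours at room temperature; centrifuge; quantify polypeptide by UPLC.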

[4] = biological target: T3, rat amylin receptor (rat calcitonin receptor + rat RAMP 3) (Rattus norvegicus, UniProt P32214+Q9JJ73); test: ASSAY (VI) binding to the rat amylin receptor; details: for IC50: binding to rat amylin receptor, read-out: rAmylin-R bind IC50
T3 construct: expressed in transfected cells; host or cells: BHK tk'ts 13 (transient, FuGENE 6), membranes
T3 sequence (P32214 25-479 isoform P32214-2 limits assumed): T2 sequence (P32214 25-479 isoform P32214-2 limits assumed)
T3 sequence (Q9JJ73 23-147 partner): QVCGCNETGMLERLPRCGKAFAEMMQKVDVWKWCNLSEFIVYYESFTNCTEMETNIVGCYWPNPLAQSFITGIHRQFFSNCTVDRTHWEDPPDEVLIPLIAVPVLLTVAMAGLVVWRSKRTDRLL
Summary of the method: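 This assay measured binding to the rat amylin receptor. BHK tk′ts 13 cells were transiently transfected with the rat calcitonin receptor using FuGENE® 6 (Roche), following the manufacturer's recommendations. About 48 hours after transfection, the cells were harvested and membranes were prepared from them for the binding determination.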

[5] = Table 5, selectivity, hCTR bind IC50 / hAmylin-R bind IC50
[6] = Table 5a, selectivity, hCTR bind IC50 / hAmylin-R bind IC50
[7] = Table 5b, selectivity, hCTR bind IC50 / hAmylin-R bind IC50
[8] = Table 7, human binding selectivity, included for comparison
[9] = Table 7a (preferred compounds), human binding selectivity, included for comparison
[10] = ratio of human calcitonin receptor binding IC50 to human amylin receptor binding IC50
[11] = bistrispropane buffer, pH 6.5, read-out: Solubility pH 6.5 Concentration
[12] = bistrispropane buffer, pH 7.5, read-out: Solubility pH 7.5 Concentration
[13] = bistrispropane buffer, pH 6.0, read-out: Solubility pH 6.0 Concentration
[14] = bistrispropane buffer, pH 7.0, read-out: Solubility pH 7.0 Concentration
[15] = bistrispropane buffer, pH 8.0, read-out: Solubility pH 8.0 Concentration
[16] = glycylglycine buffer, pH 3.0, read-out: Solubility pH 3.0 Concentration
[17] = glycylglycine buffer, pH 4.0, read-out: Solubility pH 4.0 Concentration
[18] = glycylglycine buffer, pH 5.0, read-out: Solubility pH 5.0 Concentration
[19] = Table 7, rat binding selectivity, rCTR IC50 / rAmylin-R IC50
[20] = Table 7a (preferred compounds), rat binding selectivity, rCTR IC50 / rAmylin-R IC50
[21] = ratio of rCTR bind IC50 to rAmylin-R bind IC50

Row | Ratio hCT/hAmylin binding [1, 5] | Ratio hCT/hAmylin binding [1, 6] | Ratio hCT/hAmylin binding [1, 7] | Ratio hCT/hAmylin binding ([1]; Table 5c, selectivity, hCTR bind IC50 / hAmylin-R bind IC50) | Ratio hCT/hAmylin binding [1, 8] | Ratio hCT/hAmylin binding [1, 9] | Ratio hCT/hAmylin binding [1, 10] | IC50 [2] [nM] | solubility at 18 h [3, 11] [µM] | solubility at 18 h [3, 12] [µM] | solubility at 18 h [3, 13] [µM] | solubility at 18 h [3, 14] [µM] | solubility at 18 h [3, 15] [µM] | solubility at 18 h [3, 16] [µM] | solubility at 18 h [3, 17] [µM] | solubility at 18 h [3, 18] [µM] | IC50 ([4]; Table 7) [nM] | Ratio rCT/rAmylin binding [4, 19] | Ratio rCT/rAmylin binding [4, 20] | Ratio rCT/rAmylin binding [4, 21] | SMILES
1 | 41.3 | 41.3 | 41.3 | 41.3 | 41.3 | 41.3 | 41.3 | 90.2 | ≥ 200 | ≥ 200 | ≥ 200 | ≥ 200 | ≥ 200 | ≥ 200 | ≥ 200 | ≥ 200 | 0.614 | 146.8 | 146.8 | 146.8 | CC[C@H](C)[C@H](NC(=O)[C@H](C)NC(=O)CNC(=O)[C@H](Cc1ccccc1)NC(=O)[C@H](CC(N)=O)NC(=O)[C@@H]1CCCN1C(=O)[C@H](CO)NC(=O)[C@H](CO)NC(=O)[C@H](Cc1c[nH]cn1)NC(=O)[C@H](CCCNC(=N)N)NC(=O)[C@H](CC(C)C)NC(=O)[C@H](Cc1ccccc1)NC(=O)[C@H](CC(N)=O)NC(=O)[C@H](C)NC(=O)[C@H](CC(C)C)NC(=O)[C@H](CCCNC(=N)N)NC(=O)[C@H](CCC(N)=O)NC(=O)[C@@H](NC(=O)[C@H](C)NC(=O)[C@@H]1CSSC[C@H](NC(=O)[C@@H](N)CCCCNC(=O)CC[C@H](NC(=O)CCCCCCCCCCCCCCCCCCC(=O)O)C(=O)O)C(=O)N[C@@H](CC(N)=O)C(=O)N[C@@H]([C@@H](C)O)C(=O)N[C@@H](C)C(=O)N[C@@H]([C@@H](C)O)C(=O)N1)[C@@H](C)O)C(=O)N1CCC[C@H]1C(=O)N[C@@H](CO)C(=O)N[C@@H](CO)C(=O)N[C@H](C(=O)N[C@@H](CC(N)=O)C(=O)N[C@H](C(=O)NCC(=O)N[C@@H](CO)C(=O)N[C@@H](CCC(=O)O)C(=O)N[C@H](C(=O)N[C@@H](Cc1ccc(O)cc1)C(N)=O)[C@@H](C)O)C(C)C)[C@@H](C)O [Example 27]
2 |  |  |  |  |  |  |  | 38 | ≥ 200 | ≥ 200 | ≥ 200 | ≥ 200 | ≥ 200 | ≥ 200 | ≥ 200 | ≥ 200 | 0.383 |  |  |  | CC[C@H](C)[C@H](NC(=O)[C@H](C)NC(=O)CNC(=O)[C@H](Cc1ccccc1)NC(=O)[C@H](CC(N)=O)NC(=O)[C@@H]1CCCN1C(=O)[C@H](CO)NC(=O)[C@H](CO)NC(=O)[C@H](Cc1c[nH]cn1)NC(=O)[C@H](CCCNC(=N)N)NC(=O)[C@H](CC(C)C)NC(=O)[C@H](Cc1ccccc1)NC(=O)[C@H](CC(N)=O)NC(=O)[C@H](C)NC(=O)[C@H](CC(C)C)NC(=O)[C@H](CCCNC(=N)N)NC(=O)[C@H](CCC(N)=O)NC(=O)[C@@H](NC(=O)[C@H](C)NC(=O)[C@@H]1CSSC[C@H](NC(=O)[C@@H](N)CCCCNC(=O)COCCOCCNC(=O)CC[C@H](NC(=O)CCCCCCCCCCCCCCCCCCC(=O)O)C(=O)O)C(=O)N[C@@H](CC(N)=O)C(=O)N[C@@H]([C@@H](C)O)C(=O)N[C@@H](C)C(=O)N[C@@H]([C@@H](C)O)C(=O)N1)[C@@H](C)O)C(=O)N1CCC[C@H]1C(=O)N[C@@H](CO)C(=O)N[C@@H](CO)C(=O)N[C@H](C(=O)N[C@@H](CC(N)=O)C(=O)N[C@H](C(=O)NCC(=O)N[C@@H](CO)C(=O)N[C@@H](CCCNC(=N)N)C(=O)N[C@H](C(=O)N[C@@H](Cc1ccc(O)cc1)C(N)=O)[C@@H](C)O)C(C)C)[C@@H](C)O [Example 38]
3 | 0.5 |  |  |  | 0.5 |  |  |  | ≥ 200 | ≥ 200 | ≥ 200 | ≥ 200 | ≥ 200 | ≥ 200 | ≥ 200 | ≥ 200 |  | 1.1 |  |  | CC[C@H](C)[C@H](NC(=O)[C@H](C)NC(=O)CNC(=O)[C@H](Cc1ccccc1)NC(=O)[C@H](CC(N)=O)NC(=O)[C@@H]1CCCN1C(=O)[C@H](CO)NC(=O)[C@H](CO)NC(=O)[C@H](Cc1c[nH]cn1)NC(=O)[C@H](CCCNC(=N)N)NC(=O)[C@H](CC(C)C)NC(=O)[C@H](Cc1ccccc1)NC(=O)[C@H](CCC(=O)O)NC(=O)[C@H](C)NC(=O)[C@H](CC(C)C)NC(=O)[C@H](CCCNC(=N)N)NC(=O)[C@H](CCC(N)=O)NC(=O)[C@@H](NC(=O)[C@H](C)NC(=O)[C@@H]1CSSC[C@H](NC(=O)[C@@H](N)CCCCNC(=O)CC[C@H](NC(=O)CCCCCCCCCCCCCCCCCCC(=O)O)C(=O)O)C(=O)N[C@@H](CC(N)=O)C(=O)N[C@@H]([C@@H](C)O)C(=O)N[C@@H](C)C(=O)N[C@@H]([C@@H](C)O)C(=O)N1)[C@@H](C)O)C(=O)N1CCC[C@H]1C(=O)N[C@@H](CO)C(=O)N[C@@H](CO)C(=O)N[C@H](C(=O)N[C@@H](CC(N)=O)C(=O)N[C@H](C(=O)NCC(=O)N1CCC[C@H]1C(=O)N[C@@H](CC(N)=O)C(=O)N[C@H](C(=O)N1CCC[C@H]1C(N)=O)[C@@H](C)O)C(C)C)[C@@H](C)O [Example 114] (H-K([γGlu-C20 diacid])CNTATCATQRLAEFLRHSSPNFGAIPSSTNVGPNTP-NH2; disulfide 2-7 (inferred); N-terminus assumed)
4 | 18.0 | 18.0 | 18.0 |  | 18.0 | 18.0 | 18.0 | 23.4 |  |  |  |  |  |  |  |  | 0.205 | 114.0 | 114.0 | 114.0 | CC[C@H](C)[C@H](NC(=O)[C@H](C)NC(=O)CNC(=O)[C@H](Cc1ccccc1)NC(=O)[C@H](CC(N)=O)NC(=O)[C@@H]1CCCN1C(=O)[C@H](CO)NC(=O)[C@H](CO)NC(=O)[C@H](Cc1c[nH]cn1)NC(=O)[C@H](CCCNC(=N)N)NC(=O)[C@H](CC(C)C)NC(=O)[C@H](Cc1ccccc1)NC(=O)[C@H](CCC(=O)O)NC(=O)[C@H](C)NC(=O)[C@H](CC(C)C)NC(=O)[C@H](CCCNC(=N)N)NC(=O)[C@H](CCC(N)=O)NC(=O)[C@@H](NC(=O)[C@H](C)NC(=O)[C@@H]1CSSC[C@H](NC(=O)[C@@H](N)CCCCNC(=O)CC[C@H](NC(=O)CC[C@H](NC(=O)CCCCCCCCCCCCCCCCCCC(=O)O)C(=O)O)C(=O)O)C(=O)N[C@@H](CC(N)=O)C(=O)N[C@@H]([C@@H](C)O)C(=O)N[C@@H](C)C(=O)N[C@@H]([C@@H](C)O)C(=O)N1)[C@@H](C)O)C(=O)N1CCC[C@H]1C(=O)N[C@@H](CO)C(=O)N[C@@H](CO)C(=O)N[C@H](C(=O)N[C@@H](CC(N)=O)C(=O)N[C@H](C(=O)NCC(=O)N1CCC[C@H]1C(=O)N[C@@H](CC(N)=O)C(=O)N[C@H](C(=O)N[C@@H](Cc1ccccc1)C(N)=O)[C@@H](C)O)C(C)C)[C@@H](C)O [Example 127] (H-K([γGlu-γGlu-C20 diacid])CNTATCATQRLAEFLRHSSPNFGAIPSSTNVGPNTF-NH2; disulfide 2-7 (inferred))
